Reference: patent US20260262643A1, “HERBICIDAL BENZOXAZINES” (FMC CORPORATION, priority 2022, published 2026)
Read-outs that look alike come from different tables or passages of the source.

Legend:
sedge, umbrella = test: Test B flooded paddy test; type: in vivo, Cyperus difformis; details: Cyperus difformis, 312 h; 250 g ai/ha, Flood, 13 days, 0 to 100 scale (0 no effect, 100 complete control); read-out: Plant response rating, Sedge, Umbrella
Method in brief: (§1)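 Species grown to 2-leaf stage; pots flooded 3 cm above soil and compound applied directly to paddy water, depth maintained throughout. After 13 days in greenhouse, plants visually rated against controls on 0–100 scale (0 no effect, 100 complete control); dash means no result.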

kochia [1] = test: Test A preemergence; type: in vivo, Bassia scoparia; details: Bassia scoparia, pre-emergence, 240 h, read-out: Plant response rating, Kochia; for pest or weed control at 125 g/ha: 125 g ai/ha, visual injury after 10 days, 0 to 100 scale, 0 is no effect, 100 is complete control; for pest or weed control at 500 g/ha: 500 g ai/ha, 0 to 100 scale (0 no effect, 100 complete control), 10 days
Method in brief: (§2)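 Plants were grown in loam and sand and treated preemergence or postemergence (one- to two-leaf stage, 2–10 cm) with compound in solvent plus surfactant. Response was scored against untreated controls after 10 greenhouse days, where 0 means no effect and 100 complete control.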

kochia [2] = test: Test A postemergence; type: in vivo, Bassia scoparia; details: Bassia scoparia, post-emergence, 240 h, postemergence, 10 days, 0 to 100 scale (0 no effect, 100 complete control); for pest or weed control at 125 g/ha: 125 g ai/ha; for pest or weed control at 500 g/ha: 500 g ai/ha
Method in brief: as §2

foxtail, giant = test: Test A preemergence; type: in vivo, Setaria faberi; details: Setaria faberi, pre-emergence, 240 h, read-out: Plant response rating, Foxtail, Giant; for pest or weed control at 125 g/ha: 125 g ai/ha, visual injury after 10 days, 0 to 100 scale, 0 is no effect, 100 is complete control; for pest or weed control at 500 g/ha: 500 g ai/ha, 0 to 100 scale (0 no effect, 100 complete control), 10 days
Method in brief: as §2

barnyardgrass = test: Test B flooded paddy test; type: in vivo, Echinochloa crus-galli; details: Echinochloa crus-galli, 312 h, 250 g ai/ha, Flood, 13 days, 0 to 100 scale (0 no effect, 100 complete control); read-out: Plant response rating, Barnyardgrass
Method in brief: as §1

goosegrass = test: Test A preemergence; type: in vivo, Eleusine indica; details: Eleusine indica, pre-emergence, 240 h, read-out: Plant response rating, Goosegrass; for pest or weed control at 125 g/ha: 125 g ai/ha, visual injury after 10 days, 0 to 100 scale, 0 is no effect, 100 is complete control; for pest or weed control at 500 g/ha: 500 g ai/ha, 0 to 100 scale (0 no effect, 100 complete control), 10 days
Method in brief: as §2

horseweed = test: Test A postemergence; type: in vivo, Erigeron canadensis; details: Erigeron canadensis, post-emergence, 240 h, postemergence, 10 days, 0 to 100 scale (0 no effect, 100 complete control); for pest or weed control at 125 g/ha: 125 g ai/ha; for pest or weed control at 500 g/ha: 500 g ai/ha
Method in brief: as §2

rice = test: Test B flooded paddy test; type: in vivo, Oryza sativa; details: Oryza sativa, 312 h; 250 g ai/ha, Flood, 13 days, 0 to 100 scale (0 no effect, 100 complete control); read-out: Plant response rating, Rice
Method in brief: as §1

wheat = test: Test A preemergence; type: in vivo, Triticum aestivum; details: Triticum aestivum, pre-emergence, 240 h, read-out: Plant response rating, Wheat; for plant injury at 125 g/ha: 125 g ai/ha, visual injury after 10 days, 0 to 100 scale, 0 is no effect, 100 is complete control; for plant injury at 500 g/ha: 500 g ai/ha, 0 to 100 scale (0 no effect, 100 complete control), 10 days
Method in brief: as §2

oat, wild = test: Test A preemergence; type: in vivo, Avena fatua; details: Avena fatua, pre-emergence, 240 h, read-out: Plant response rating, Oat, Wild; for pest or weed control at 125 g/ha: 125 g ai/ha, visual injury after 10 days, 0 to 100 scale, 0 is no effect, 100 is complete control; for pest or weed control at 500 g/ha: 500 g ai/ha, 0 to 100 scale (0 no effect, 100 complete control), 10 days
Method in brief: as §2

corn = test: Test A preemergence; type: in vivo, Zea mays; details: Zea mays, pre-emergence, 240 h; for Corn plant response rating (crop injury, 0 = no effect, 100 = complete kill) at 125 g/ha: 125 g ai/ha, visual injury after 10 days, 0 to 100 scale, 0 is no effect, 100 is complete control; for Corn plant response rating (crop injury, 0 = no effect, 100 = complete kill) at 500 g/ha: 500 g ai/ha, 0 to 100 scale (0 no effect, 100 complete control), 10 days
Method in brief: as §2

ryegrass, Italian = test: Test A postemergence; type: in vivo, Lolium multiflorum; details: Lolium multiflorum, post-emergence, 240 h, postemergence, 10 days, 0 to 100 scale (0 no effect, 100 complete control); for pest or weed control at 500 g/ha: 500 g ai/ha, visual injury, read-out: Plant response rating, Ryegrass, Italian; for pest or weed control at 125 g/ha: 125 g ai/ha, read-out: Ryegrass, Italian plant response rating
Method in brief: as §2

soybean = test: Test A postemergence; type: in vivo, Glycine max; details: Glycine max, post-emergence, 240 h, postemergence, 10 days, 0 to 100 scale (0 no effect, 100 complete control); for plant injury at 500 g/ha: 500 g ai/ha, visual injury, read-out: Plant response rating, Soybean; for plant injury at 125 g/ha: 125 g ai/ha, read-out: Soybean plant response rating
Method in brief: as §2

galium = test: Test A postemergence; type: in vivo, Galium aparine; details: Galium, post-emergence, 240 h, postemergence, 10 days, 0 to 100 scale (0 no effect, 100 complete control); for pest or weed control at 125 g/ha: 125 g ai/ha; for pest or weed control at 500 g/ha: 500 g ai/ha
Method in brief: as §2

[3] = visual injury, read-out: Plant response rating, Kochia
[4] = visual injury, read-out: Plant response rating, Horseweed
[5] = visual injury, read-out: Plant response rating, Galium
[6] = read-out: Kochia plant response rating
[7] = read-out: Horseweed plant response rating
[8] = read-out: Galium plant response rating

| SMILES | pest or weed control at 250 g/ha (sedge, umbrella) | pest or weed control at 125 g/ha (kochia [1]) | pest or weed control at 500 g/ha (kochia [1]) | pest or weed control at 500 g/ha (kochia [2]; [3]) | pest or weed control at 125 g/ha (foxtail, giant) | pest or weed control at 500 g/ha (foxtail, giant) | pest or weed control at 250 g/ha (barnyardgrass) | pest or weed control at 125 g/ha (goosegrass) | pest or weed control at 500 g/ha (goosegrass) | pest or weed control at 500 g/ha (horseweed; [4]) | plant injury at 250 g/ha (rice) | plant injury at 125 g/ha (wheat) | plant injury at 500 g/ha (wheat) | pest or weed control at 125 g/ha (oat, wild) | pest or weed control at 500 g/ha (oat, wild) | Corn plant response rating (crop injury, 0 = no effect, 100 = complete kill) at 125 g/ha (corn) | Corn plant response rating (crop injury, 0 = no effect, 100 = complete kill) at 500 g/ha (corn) | pest or weed control at 500 g/ha (ryegrass, Italian) | plant injury at 500 g/ha (soybean) | pest or weed control at 500 g/ha (galium; [5]) | also measured |
| --- | --- | --- | --- | --- | --- | --- | --- | --- | --- | --- | --- | --- | --- | --- | --- | --- | --- | --- | --- | --- | --- |
| Cc1ccc(-n2cnc(C(C)C)n2)cc1C(=O)N1C[C@H](C)Oc2c(Cl)cccc21 [Compound 73, [(2S)-8-Chloro-2,3-dihydro-2-methyl-4H-1,4-benzoxazin-4-yl][2-methyl-5-[3-(1-methylethyl)-1H-1,2,4-triazol-1-yl]phenyl]methanone] | 70% | 100% | 100% | 100% | 100% | 100% | 45% | 100% | 100% | 50% | 20% | 20% | 80% | 80% | 90% | 60% | 80% | 100% | 100% | 100% | pest or weed control at 125 g/ha (kochia [2]; [3]): 90%; pest or weed control at 125 g/ha (horseweed; [4]): 30%; pest or weed control at 125 g/ha (galium; [5]): 100% |
| C[C@H]1CN(C(=O)c2cccc(-n3cnc(C4CCC4)n3)c2)c2cccc(Cl)c2O1 [Compound 93, [(2S)-8-Chloro-2,3-dihydro-2-methyl-4H-1,4-benzoxazin-4-yl][3-(3-cyclobutyl-1H-1,2,4-triazol-1-yl)phenyl]methanone] | 0% | 50% | 100% | 90% | 80% | 100% | 0% | 90% | 100% | 40% | 0% | 0% | 10% | 20% | 90% | 10% | 10% | 90% | 100% | 100% | pest or weed control at 125 g/ha (kochia [2]; [6]): 80%; pest or weed control at 125 g/ha (horseweed; [7]): 0%; pest or weed control at 125 g/ha (ryegrass, Italian): 30%; plant injury at 125 g/ha (soybean): 100%; pest or weed control at 125 g/ha (galium; [8]): 100% |
| Cc1ccc(-n2cnc(C3CCC3)n2)cc1C(=O)N1C[C@H](C)Oc2c(Cl)cccc21 [Compound 96, [(2S)-8-Chloro-2,3-dihydro-2-methyl-4H-1,4-benzoxazin-4-yl][5-(3-cyclobutyl-1H-1,2,4-triazol-1-yl)-2-methylphenyl]methanone] | 98% | 30% | 100% | 100% | 100% | 100% | 60% | 100% | 100% | 80% | 0% | 20% | 50% | 50% | 80% | 30% | 50% | 100% | 100% | 100% | pest or weed control at 125 g/ha (kochia [2]; [6]): 90%; pest or weed control at 125 g/ha (horseweed; [7]): 40%; pest or weed control at 125 g/ha (ryegrass, Italian): 50%; plant injury at 125 g/ha (soybean): 100%; pest or weed control at 125 g/ha (galium; [8]): 100% |
| Cc1ncn(-c2ccc(C)c(C(=O)N3C[C@H](C)Oc4c(Cl)cccc43)c2)n1 (single isomer, unassigned) [Compound 74] | 95% | 40% | 100% | 90% | 100% | 100% | 10% | 100% | 100% | 0% | 20% | 20% | 90% | 60% | 90% | 40% | 90% | 100% | 100% | 100% | pest or weed control at 125 g/ha (kochia [2]; [3]): 70%; pest or weed control at 125 g/ha (horseweed; [4]): 0%; pest or weed control at 125 g/ha (galium; [5]): 100% |
